Reference: the supplement of paper PMC13380429

Key:
HepG2 [1] = assay: cell viability relative to DMSO; higher = less toxic; conditions: 72 h
Calu-3 [2] = assay: as above; conditions: 72 h
Caco-2 [3] = assay: as above; conditions: 72 h
U2OS [4] = assay: as above; conditions: 72 h
Vero E6 [5] = assay: as above; conditions: 72 h
HepG2 [6] = assay: drug sensitivity score (DSS) for viability; higher = more toxic; extreme values may be limits of the assay; conditions: 72 h
Calu-3 [7] = assay: as above; conditions: 72 h
Caco-2 [8] = assay: as above; conditions: 72 h
U2OS [9] = assay: as above; conditions: 72 h
Vero E6 [10] = assay: as above; conditions: 72 h
[11] = test system: A549-ACE2 infected with SARS-CoV-2; assay: cell count relative to DMSO; higher = less toxic; conditions: 24 h
A549-ACE2 [12] = assay: drug-induced phospholipidosis relative to tamoxifen; higher = more phospholipidosis
[13] = test system: A549-ACE2 infected with SARS-CoV-2; assay: morphology score (similarity to uninfected cells); higher = more like uninfected cells; conditions: 24 h
HepG2 [14] = assay: relative viability EC50 (midpoint between 100% and the lowest measured viability); higher = less toxic; conditions: 72 h
Calu-3 [15] = assay: as above; conditions: 72 h
Caco-2 [16] = assay: as above; conditions: 72 h
U2OS [17] = assay: as above; conditions: 72 h
Vero E6 [18] = assay: as above; conditions: 72 h
[19] = test system: A549-ACE2 infected with SARS-CoV-2; assay: SARS-CoV-2 infection rate relative to DMSO; higher = more infection; conditions: 24 h
A549-ACE2 [20] = assay: phospholipidosis EC50; higher = less potent phospholipidosis inducer

Cc1ccc2cc(-c3c(C)ccc(C(=O)c4c(-c5ccccc5)n(C)n(-c5ccccc5)c4=O)c3N)ccc2n1 [AMG-PERK-44]
Conditions	SARS-CoV-2 infection rate, [19] [%]	cell count, [11] [%]	cell viability, Caco-2 [3] [%]	cell viability, Calu-3 [2] [%]	cell viability, HepG2 [1] [%]	cell viability, U2OS [4] [%]	cell viability, Vero E6 [5] [%]	morphology score, [13]
1 nM	–	–	92.6	105	96.5	98.4	85.8	–
10 nM	–	–	90.6	102	98.4	96.7	88.9	–
100 nM	–	–	75.3	100	93	98.1	92.9	–
0.3 µM	107	96	–	–	–	–	–	-0.16
1000 nM	–	–	68.5	95.7	91.3	102	98.7	–
3 µM	86	101	–	–	–	–	–	0.09
10000 nM	–	–	97.1	111	86.7	101	116	–
10 µM	91	103	–	–	–	–	–	0.05
30 µM	51	103	–	–	–	–	–	0.57

Conditions	drug sensitivity score	relative viability EC50 [µM]
Caco-2 [8]	0	–
Caco-2 [16]	–	> 10
Calu-3 [7]	0	–
Calu-3 [15]	–	> 10
HepG2 [6]	0.2	–
HepG2 [14]	–	> 10
U2OS [9]	0	–
U2OS [17]	–	> 10
Vero E6 [10]	0	–
Vero E6 [18]	–	> 10

drug-induced phospholipidosis [%], A549-ACE2 [12]
Conditions	0.3 µM	0.833333 µM	3.33333 µM	6.66667 µM	10 µM	30 µM
24 h	0.1	-2.94	-0.56	4.07	7.05	23.2
48 h	0.46	-0.23	5.6	10.1	14.1	24.3
72 h	0.916	0.798	10	13.7	17.9	33.4

COc1ccc(/C=C2\CCCN=C2c2cccnc2)c(OC)c1 [GTS21]
Conditions	SARS-CoV-2 infection rate, [19] [%]	cell count, [11] [%]	cell viability, Caco-2 [3] [%]	cell viability, Calu-3 [2] [%]	cell viability, HepG2 [1] [%]	cell viability, U2OS [4] [%]	cell viability, Vero E6 [5] [%]	morphology score, [13]
1 nM	–	–	104	97.4	113	94.8	107	–
10 nM	–	–	97.2	94.1	101	105	100	–
100 nM	–	–	93.9	101	101	96.2	103	–
0.3 µM	108	96	–	–	–	–	–	-0.18
1000 nM	–	–	106	95.3	104	102	102	–
3 µM	99	99	–	–	–	–	–	-0.04
10000 nM	–	–	95.4	97	93.7	90.9	86.3	–
10 µM	86	110	–	–	–	–	–	0.24
30 µM	28	118	–	–	–	–	–	0.78

Conditions	drug sensitivity score	relative viability EC50 [µM]
Caco-2 [8]	0	–
Caco-2 [16]	–	> 10
Calu-3 [7]	0	–
Calu-3 [15]	–	> 10
HepG2 [6]	0	–
HepG2 [14]	–	> 10
U2OS [9]	0	–
U2OS [17]	–	> 10
Vero E6 [10]	0.1	–
Vero E6 [18]	–	> 10

drug-induced phospholipidosis [%], A549-ACE2 [12]
Conditions	0.3 µM	0.833333 µM	3.33333 µM	6.66667 µM	10 µM	30 µM
24 h	2.83	0.08	1.02	-1.62	5.46	7.31
48 h	4.89	-1.26	2.13	1.63	7.64	10
72 h	3.83	-0.539	2.57	1.51	7.5	15.1

CCN(CC)CCOc1ccc(C(O)(Cc2ccc(Cl)cc2)c2ccc(C)cc2)cc1 (stereo unspecified) [Triparanol]
Conditions	drug sensitivity score
Calu-3 [7]	5.5
HepG2 [6]	6.4
U2OS [9]	1.3
Vero E6 [10]	0.7

Conditions	morphology score, 0.1 µM	morphology score, 0.3 µM	morphology score, 1 µM	morphology score, 3 µM	phospholipidosis EC50, 24 h [µM]	phospholipidosis EC50, 48 h [µM]	phospholipidosis EC50, 72 h [µM]
A549-ACE2 [20]	–	–	–	–	2.19	2.74	3.71
[13]	0.02	-0.17	0.22	0.85	–	–	–

CCCc1cc(C)[nH]c(=O)c1CNC(=O)c1cc(-c2ccc(N3CCN(C(C)C)CC3)nc2)cc2c1cnn2C(C)C [UNC1999]
Conditions	SARS-CoV-2 infection rate, [19] [%]	cell count, [11] [%]	cell viability, Caco-2 [3] [%]	cell viability, Calu-3 [2] [%]	cell viability, HepG2 [1] [%]	cell viability, U2OS [4] [%]	cell viability, Vero E6 [5] [%]	morphology score, [13]
1 nM	–	–	107	94.2	109	99.1	95.6	–
10 nM	–	–	103	103	100	102	94.6	–
100 nM	–	–	97.6	96.5	93.3	99.3	95.2	–
0.3 µM	100	103	–	–	–	–	–	0.06
1000 nM	–	–	96.9	91.4	99.6	107	84.7	–
3 µM	87	109	–	–	–	–	–	0.43
10000 nM	–	–	83.9	89.4	88.7	102	107	–
10 µM	29	119	–	–	–	–	–	0.8
30 µM	13	121	–	–	–	–	–	0.6

Conditions	drug sensitivity score	relative viability EC50 [µM]
Caco-2 [8]	0.6	–
Caco-2 [16]	–	> 10
Calu-3 [7]	0.1	–
Calu-3 [15]	–	> 10
HepG2 [6]	0	–
HepG2 [14]	–	> 10
U2OS [9]	0	–
U2OS [17]	–	> 10
Vero E6 [10]	0	–
Vero E6 [18]	–	> 10

drug-induced phospholipidosis [%], A549-ACE2 [12]
Conditions	0.3 µM	0.833333 µM	3.33333 µM	6.66667 µM	10 µM	30 µM
24 h	15.7	-2.03	5.96	5.07	18.5	38.5
48 h	6.9	-2.52	5.26	6.51	17.6	36.4
72 h	1.41	-4.2	4.48	4.14	13.9	37
